≈ marks a conversion by molar mass, not a printed value.
How the values were obtained:
[1] = test system: MCF-7 human breast cancer cells; test: [14C]acetate incorporation into total lipids; format: cell-based; details: MCF7
Experimental: Measurement of [^14 C]acetate Incorporation into Total Lipids and Determination of IC50 of Compounds
This assay measures the incorporation of [^14C]acetate into total lipids and is a measure of fatty acid synthesis pathway activity in vitro. It is utilized to measure inhibition of fatty acid synthesis in vitro.
MCF-7 human breast cancer cells cultured as above, are plated at 5×10^4 cells per well in 24-well plates. Following overnight incubation, the compounds to be tested, solubilized in DMSO, are added at 5, 10, and 20 μg/ml in triplicate, with lower concentrations tested if necessary. DMSO is added to triplicate wells for a vehicle control. C75 is run at 5 and 10 μg/ml in triplicate as positive controls. After 4 hours of incubation, 0.25 μCi of [^14C]acetate (10 μl volume) is added to each well.
After 2 hours of additional incubation, medium is aspirated from the wells and 800 μl of chloroform:methanol (2:1) and 700 μl of 4 mM MgCl2 is added to each well. Contents of each well are transferred to 1.5 Eppendorf tubes, and spun at full-speed for 2 minutes in a high-speed Eppendorf Microcentrifuge 5415D. After removal of the aqueous (upper) layer, an additional 700 μl of chloroform:methanol (2:1) and 500 μl of 4 mM MgCl2 are added to each tube and then centrifuged for 1 minutes as above. The aqueous layer is removed with a Pasteur pipette and discarded. An additional 400 μl of chloroform:methanol (2:1) and 200 μl of 4 mM MgCl2 are added to each tube, then centrifuged and aqueous layer is discarded. The lower (organic) phase is transferred into a scintillation vial and dried at 40° C. under N2 gas. Once dried, 3 ml of scintillant (APB #NBC5104) is added and vials are counted for ^14C. The Beckman Scintillation counter calculates the average cpm values for triplicates.
The IC50 for the compounds is defined as the concentration of drug leading to a 50% reduction in [^14C]acetate incorporation into lipids compared to controls. This is determined by plotting the average cpm for each inhibitor concentration tested, performing linear regression and computing the best-fit line, r^2 values, and 95% confidence intervals. The average cpm values are computed by the Beckman scintillation counter (Model LS6500) for each compound concentration. Computation of linear regression, best-fit line, r^2, and 95% confidence intervals are calculated using Prism Version 3.0 (Graph Pad Software).

[2] = test system: MCF-7 human breast cancer cells; test: Crystal violet cell growth assay, MCF-7; format: cell-based; details: MCF7, no cell code printed, MCF-7 per method, 72 hours, read-out: Cr. Violet (IC50)
Experimental: Crystal Violet Cell Growth Assay
The crystal violet assay measure cell growth but not cytotoxicity. This assay employs crystal violet staining of fixed cells in 96-well plates with subsequent solubilization and measurement of OD490 on a spectrophotometer. The OD490 corresponds to cell growth per unit time measured. Cells are treated with the compounds of interest or vehicle controls and IC50 for each compound is computed.
To measure the cytotoxicity of specific compounds against cancer cells, 5×10^4 MCF-7 human breast cancer cells, obtained from the American Type Culture Collection are plated per well in 24 well plates in DMEM medium with 10% fetal bovine serum, penicillin, and streptomycin. Following overnight culture at 37° C. and 5% CO2, the compounds to be tested, dissolved in DMSO, are added to the wells in 1 μl volume at the following concentrations: 50, 40, 30, 20, and 10 μg/ml in triplicate. […]
After 72 hours of incubation, cells are stained with 0.5 ml of Crystal Violet stain (0.5% in 25% methanol) in each well. […] Following transfer of 100 μl from each well to a 96-well plate, plates are read at OD490 on a Molecular Devices SpectraMax Plus Spectrophotometer Average OD490 values are computed using SOFTmax Pro Software (Molecular Devices) and IC50 values are determined by linear regression analysis using Prism version 3.02 (Graph Pad Software, San Diego).

[3] = Weight loss screen in Balb/C mice; format: in vivo; details: 60 mg/kg intraperitoneally, day 1
Experimental: Weight Loss Screen for Novel FAS Inhibitors
Balb/C mice (Jackson Labs) are utilized for the initial weight loss screening. Animals are housed in temperature and 12 hour day/night cycle rooms and fed mouse chow and water ad lib. Three mice are utilized for each compound tested with vehicle controls in triplicate per experiment. For the experiments, mice are housed separately for each compound tested three mice to a cage. Compounds are diluted in DMSO at 10 mg/ml and mice are injected intraperitoneally with 60 mg/kg in approximately 100 μl of DMSO or with vehicle alone. Mice are observed and weighed daily; average weights and standard errors are computed with Excel (Microsoft). The experiment continues until treated animals reach their pretreatment weights.

SMILES	IC50 [1]	IC50 [2]	Weight Loss [3]
CCCCCCCCC1(C)SC(=O)C=C1OCC(=O)NNc1ccccc1Cl (centres unmarked) [Compound 19, (5-Methyl-5-octyl-2-oxo-thiophen-4-yloxy)-acetic-acid-N′-(2-chlorophenyl)-hydrazide]	39.8 ± 12.7 µg/mL (≈ 93.6 µM)	7.6 µg/mL (≈ 17.9 µM)	60 mg/kg: +3.0% (day 1)
CCCCCCCCC1(C)SC(=O)C=C1OCC(=O)NNC(=O)c1ccncc1 (centres unmarked) [Compound 20]	17.4 µg/mL (≈ 41.5 µM)	18.2 µg/mL (≈ 43.4 µM)	–

From patent US20100168176A1, “NOVEL COMPOUNDS, PHARMACEUTICAL COMPOSITIONS CONTAINING SAME, AND METHODS OF USE FOR SAME” (FASGEN LLC, priority 2006, published 2010)
